Read-outs that look alike come from different tables or passages of the source.
Tests used:
[1] = biological target: T1, α-amylase (AA) type VI-B from porcine pancreas (Sus scrofa, UniProt P00690); assay: AA inhibition assay; settings: for IC50: α-Amylase IC50 (µM), evaluated range 6.25 µM–1000 µM, mean of n = 3 ± SD
T1 sequence (P00690 16-511): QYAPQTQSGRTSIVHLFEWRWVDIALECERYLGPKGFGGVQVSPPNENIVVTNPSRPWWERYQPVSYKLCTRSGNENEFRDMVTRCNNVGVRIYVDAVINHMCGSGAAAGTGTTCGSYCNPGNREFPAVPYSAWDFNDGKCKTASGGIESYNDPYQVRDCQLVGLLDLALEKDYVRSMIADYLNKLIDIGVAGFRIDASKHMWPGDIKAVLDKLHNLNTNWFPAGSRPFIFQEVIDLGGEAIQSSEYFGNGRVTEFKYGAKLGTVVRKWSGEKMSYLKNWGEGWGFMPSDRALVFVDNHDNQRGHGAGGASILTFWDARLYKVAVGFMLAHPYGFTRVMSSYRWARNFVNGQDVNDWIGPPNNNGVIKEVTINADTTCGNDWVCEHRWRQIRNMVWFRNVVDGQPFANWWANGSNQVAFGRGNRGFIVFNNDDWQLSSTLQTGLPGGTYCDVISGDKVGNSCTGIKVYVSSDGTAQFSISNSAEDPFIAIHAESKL

[2] = biological target: T2, pancreatic lipase type II (PL) from porcine pancreas (Sus scrofa, UniProt P00591); assay: PL inhibition assay; type: biochemical; settings: for IC50: evaluated range 6.25 µM–1000 µM, mean of n = 3 ± SD
T2 construct: pancreatic lipase type II (PL) from porcine pancreas; purchased Sigma-Aldrich L-SLBD2433V; host or cells: porcine pancreas
T2 sequence (P00591 1-450): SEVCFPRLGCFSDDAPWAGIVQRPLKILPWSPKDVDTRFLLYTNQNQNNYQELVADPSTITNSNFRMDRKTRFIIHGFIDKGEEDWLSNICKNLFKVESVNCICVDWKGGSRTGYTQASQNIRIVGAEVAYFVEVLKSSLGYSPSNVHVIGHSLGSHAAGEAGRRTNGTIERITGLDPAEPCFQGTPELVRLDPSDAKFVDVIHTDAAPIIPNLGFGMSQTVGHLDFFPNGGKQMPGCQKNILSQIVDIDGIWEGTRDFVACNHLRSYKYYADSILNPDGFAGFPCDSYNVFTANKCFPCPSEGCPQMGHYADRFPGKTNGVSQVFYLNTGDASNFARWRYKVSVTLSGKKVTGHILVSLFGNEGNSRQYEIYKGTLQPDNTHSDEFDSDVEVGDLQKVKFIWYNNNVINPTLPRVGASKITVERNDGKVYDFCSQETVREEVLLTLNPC

[3] = biological target: T3, α-glucosidase (AG) type I from Saccharomyces cerevisiae (Saccharomyces cerevisiae, UniProt P53341); assay: biochemical
[4] = biological target: T2, pancreatic lipase type II (PL) from porcine pancreas; assay: Kinetic study on PL; type: biochemical; settings: for Ki: substrate p-nitrophenyl dodecanoate
PL = settings: cited from earlier work
α-glucosidase = settings: cited from earlier work
[5] = biological target: T3, α-glucosidase (AG) type I from Saccharomyces cerevisiae; assay: biochemical; type: biochemical; set-up: purchased Sigma-Aldrich L-SLBX6245
[6] = biological target: T1, α-amylase (AA) type VI-B from porcine pancreas; assay: Kinetic study on AA; type: biochemical; set-up: α-amylase (AA) type VI-B from porcine pancreas; purchased Sigma-Aldrich L-SLBP4061V; host or cells: porcine pancreas; settings: for Ki: substrate starch
α-amylase = settings: cited from earlier work; for % inhibition of AA, previous studies: at a concentration of 100 µM
[7] = biological target: T3, α-glucosidase (AG) type I from Saccharomyces cerevisiae
[8] = α-Glucosidase IC50 (µM), evaluated range 6.25 µM–1000 µM, mean of n = 3 ± SD
[9] = ref 17, 37, read-out: IC50 against PL, previous studies
[10] = ref 39, read-out: IC50 against AG, Ryu and collaborators
[11] = substrate p-nitrophenyl-α-D-glucopyranoside, read-out: α-Glucosidase Ki
[12] = ref 31-34, read-out: IC50 against PL
[13] = ref 10, read-out: IC50 against AG, Li and collaborators
[14] = ref 53, read-out: IC50 against AG, Vongsak and collaborators
[15] = ref 31-34, read-out: IC50 against α-amylase

T3 sequence (P53341 whole entry): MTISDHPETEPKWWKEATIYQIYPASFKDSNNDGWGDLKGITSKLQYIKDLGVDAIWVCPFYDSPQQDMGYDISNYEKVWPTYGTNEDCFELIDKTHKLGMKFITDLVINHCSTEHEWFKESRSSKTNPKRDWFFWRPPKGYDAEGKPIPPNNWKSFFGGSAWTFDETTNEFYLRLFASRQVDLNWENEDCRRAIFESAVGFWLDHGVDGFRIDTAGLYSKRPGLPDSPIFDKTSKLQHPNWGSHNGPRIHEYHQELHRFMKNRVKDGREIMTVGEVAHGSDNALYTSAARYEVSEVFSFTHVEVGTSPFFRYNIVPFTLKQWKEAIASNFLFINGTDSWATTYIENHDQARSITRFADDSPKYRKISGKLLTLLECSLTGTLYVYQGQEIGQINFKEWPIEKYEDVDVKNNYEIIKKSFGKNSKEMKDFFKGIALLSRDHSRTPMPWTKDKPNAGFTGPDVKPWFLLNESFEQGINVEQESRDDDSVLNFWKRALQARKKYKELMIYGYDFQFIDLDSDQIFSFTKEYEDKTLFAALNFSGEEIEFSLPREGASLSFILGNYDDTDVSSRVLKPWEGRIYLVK

Row | Compound | IC50 [1] | IC50 [2] | IC50 [3, 8] | type of inhibition against PL (in words) [4] | Ki [4] | IC50 (α-glucosidase; [10]) | Ki [5, 11] | type of inhibition on AA (in words) [6] | Ki [6] | other results
1 | COc1c(O)cc2oc3cc4c(c(O)c3c(=O)c2c1CC=C(C)C)C=CC(C)(C)O4 [Compound 1, 9-hydroxycalabaxanthone] | > 1000 µM | 138 ± 6.8 µM | 157 ± 2.1 µM | non-competitive inhibitors | 138 µM | 34.2 µM | 154 µM | – | – | inhibitory activity on AA (in words) [1]: completely lost; IC50 (PL; [9]): 12 µM; type of inhibition of AG (in words) [5]: uncompetitive inhibitor
2 | CC(C)=CCc1c(O)c(CC=C(C)C)c2oc3c(O)cccc3c(=O)c2c1O [Compound 2, 8-deoxygartanin] | 166 ± 4.1 µM | 326 ± 7.1 µM | 248 ± 4 µM | non-competitive inhibitors | 326 µM | 21.5 µM | 248 µM | non-competitive type of inhibitor | 166 µM | IC50 (PL; [9]): 50 µM
3 | CC(C)=CCc1c(O)c(CC=C(C)C)c2oc3c(O)ccc(O)c3c(=O)c2c1O [Compound 3, gartanin] | > 1000 µM | 135 ± 1.5 µM | 124 ± 8.2 µM | uncompetitive inhibitors | 130 µM | 10 µM | 124 µM | – | – | IC50 (PL; [9]): 12 µM
4 | COc1c(O)cc2oc3cc(O)c(CC=C(C)C)c(O)c3c(=O)c2c1CC=C(C)C [Compound 4, α-mangostin] | 318 ± 4.3 µM | 50.6 ± 6.7 µM | – | non-competitive inhibitors | 50.6 µM | 5 µM | – | competitive type inhibitors | 240 µM | IC50 [3]: 31.6 ± 2.6 µM; % inhibition of AA, previous studies (α-amylase): 60%; IC50 (α-amylase; ref 17, read-out: IC50 against AA, previous studies): 29.6 µM; IC50 (PL; [9]): 47.3 µM; IC50 (PL; [12]): 5 µM; IC50 (α-glucosidase; [13]): 10 µM; IC50 (α-glucosidase; [14]): 29.2 µM; Ki [5]: 31.6 µM
5 | CC(C)=CCc1c(O)cc2oc3cc(O)c(O)c(CC=C(C)C)c3c(=O)c2c1O [Compound 5, γ-mangostin] | 333 ± 4.5 µM | 67.1 ± 2.8 µM | 84.7 ± 6.7 µM | – | 57.2 µM | 1.5 µM | – | competitive type inhibitors | 139 µM | % inhibition of AA, previous studies (α-amylase): 67.3%; IC50 (PL; [12]): 10 µM; IC50 (α-glucosidase; [13]): 5 µM; IC50 (α-glucosidase; [14]): 4.2 µM; Ki [5]: 84.7 µM
6 | COc1cc2oc3cc(OC)c(OC)c(CC=C(C)C)c3c(=O)c2c(O)c1CC=C(C)C [Compound 6, fuscaxanthone C] | 164.4 ± 0.9 µM | 69.2 ± 4.9 µM | 33.3 ± 4.1 µM | mixed inhibitors | 69.2 µM | – | 0.3 µM | competitive type inhibitors | 28.6 µM | melting point: 118 to 120 °C; type of inhibition of AG (in words) [5]: competitive inhibitors
7 | COc1c(O)cc2oc3cc4c(c(O)c3c(=O)c2c1CC=C(C)C)CCC(C)(C)O4 [Compound 7, 3-isomangostin] | > 1000 µM | > 1000 µM | – | – | – | – | 37.2 µM | – | – | inhibitory activity on AA (in words) [1]: completely lost; inhibition in the catalytic activity of PL (in words) [2]: did not cause any inhibition; IC50 [3]: 37.2 ± 4.1 µM
8 | CC1(C)CCc2c(cc3oc4cc(O)c5c(c4c(=O)c3c2O)CCC(C)(C)O5)O1 [Compound 8, BR-xanthone A] | > 1000 µM | > 1000 µM | – | – | – | – | – | – | – | inhibitory activity on AA (in words) [1]: completely lost; melting point: 160 to 162 °C; inhibition in the catalytic activity of PL (in words) [2]: did not cause any inhibition; inhibition in the catalytic activity of AG (in words) [7]: did not cause any inhibition; IC50 [3]: > 1000 µM
9 | COc1c(O)cc2oc3cc(O)c(CCC(C)C)c(O)c3c(=O)c2c1CCC(C)C [Compound 9, tetrahydro-α-mangostin] | 90.1 ± 6 µM | 454.6 ± 1.9 µM | – | mixed inhibitors | 405 µM | – | – | competitive type inhibitors | 90.1 µM | IC50 [3]: 34.2 ± 1.8 µM; Ki [5]: 34.2 µM; type of inhibition of AG (in words) [5]: competitive inhibitors
10 | CCCCCOc1cc2oc3cc(OCCCCC)c(OC)c(CC=C(C)C)c3c(=O)c2c(O)c1CC=C(C)C [Compound 10, 3,6-di-pentoxy-α-mangostin] | > 1000 µM | > 1000 µM | > 1000 µM | – | – | – | – | – | – | inhibition in the catalytic activity of PL (in words) [2]: did not cause any inhibition; inhibition in the catalytic activity of AG (in words) [7]: did not cause any inhibition
11 | COc1cc2oc3c(C)c(OC)c(CC=C(C)C)c(O)c3c(=O)c2c(CC=C(C)C)c1OC [Compound 11, 3,6-di-methoxy-4-methyl-α-mangostin] | > 1000 µM | 59.4 ± 3.8 µM | > 1000 µM | mixed inhibitors | 59.4 µM | – | – | – | – | inhibitory activity on AA (in words) [1]: completely annuls the activity; inhibition in the catalytic activity of AG (in words) [7]: did not cause any inhibition
12 | O=C(c1cc(O)ccc1O)c1c(O)cc(O)cc1O[C@@H]1O[C@H](CO)[C@@H](O)[C@H](O)[C@H]1O [Garcimangophenone B, reference compound] | – | – | – | – | – | – | – | – | – | IC50 (α-amylase; [15]): 12.2 µM
13 | Garcimangophenones A [Garcimangophenone A, reference compound] | – | – | – | – | – | – | – | – | – | IC50 (α-amylase; [15]): 9.3 µM
14 | mangoxanthone A [reference compound] | – | – | – | – | – | – | – | – | – | IC50 (α-amylase; [15]): 22.7 µM; IC50 (α-glucosidase; ref 31-34, read-out: IC50 against α-glucosidase): 29.1 µM

From paper PMC9144329, “Multitarget Action of Xanthones from Garcinia mangostana against α-Amylase, α-Glucosidase and Pancreatic Lipase” (Molecules, 2022)
